Reference: PMC6735293, “Design, synthesis, and biological evaluation of novel androst-17β-amide structurally related compounds as dual 5α-reductase inhibitors and androgen receptor antagonists” (Journal of Enzyme Inhibition and Medicinal Chemistry, 2019)
Like-named read-outs stand apart in the source and are kept apart here.

Tests used:
[1] = target: T1, 5α-reductase type 1 isozyme (Rattus norvegicus, UniProt P24008); assay: Enzyme inhibition test, 5α-reductase type 1 (pH 6.6); type: biochemical
T1 sequence (P24008 1-259): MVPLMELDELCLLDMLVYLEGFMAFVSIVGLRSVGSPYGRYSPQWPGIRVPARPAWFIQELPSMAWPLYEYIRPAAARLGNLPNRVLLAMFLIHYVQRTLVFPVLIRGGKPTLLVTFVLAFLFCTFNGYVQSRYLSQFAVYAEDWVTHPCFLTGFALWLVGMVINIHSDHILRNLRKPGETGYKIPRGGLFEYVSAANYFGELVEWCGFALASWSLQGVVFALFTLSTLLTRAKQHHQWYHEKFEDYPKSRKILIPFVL
Procedure: (§1) Female rats were sacrificed and liver were taken within 5 min. All the following steps were performed at 0–4 °C. 1 g liver was cut into 3 mm pieces and added to 3 times volume of PBS. The tissue was homogenized and centrifuged at 10,000 g for 30 min. The supernatant was collected and centrifuged repeatedly at 100,000 for 1 h. The pellet obtained was resuspended in phosphate buffer (contained 30% glycerol, 1:3 v/v) and stored at −70 °C. The incubation mixture contained 50 µL enzyme solution, 6 µL NADPH (80 µM), 6 µL T (20 µM), and 108 µL buffer with or without test compound. The negative control contained 50 µL enzyme solution, 6 µL NADPH (80 µM) and 114 µL buffer. The incubation was carried out for 30 min at 37 °C. The fluorescence decay rate was tested in 10 min at 37 °C.
(§2) The inhibitory activities of the synthesized compounds were then assessed towards the 5α-reductase 1 and 2 isozymes, respectively. Finasteride was used as positive control.

[2] = target: T2, 5α-reductase type 2 isozyme (Rattus norvegicus, UniProt P31214); assay: Enzyme inhibition test, 5α-reductase type 2 (pH 5.5); type: biochemical
T2 sequence (P31214 1-254): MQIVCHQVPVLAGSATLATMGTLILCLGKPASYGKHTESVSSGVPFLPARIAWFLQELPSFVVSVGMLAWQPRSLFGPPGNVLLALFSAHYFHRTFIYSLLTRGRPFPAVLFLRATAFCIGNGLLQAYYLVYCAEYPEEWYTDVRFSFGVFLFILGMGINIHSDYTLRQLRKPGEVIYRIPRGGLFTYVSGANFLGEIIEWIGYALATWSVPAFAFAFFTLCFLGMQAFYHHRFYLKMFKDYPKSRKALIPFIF
Procedure: as §1, §2

22RV1 cells = assay: MTT anti-proliferation assay, T-stimulated 22RV1; type: cell-based, Human; settings: for Effect on cell viability of T-treated 22RV1 cells: different concentrations of compound with 0.1 μM T, Figure 3
Procedure: Human prostate carcinoma 22RV1 (CRL-2505, ATCC) and PC-3 (CRL-1435, ATCC) cells were cultured in RPMI-1640 medium (Invitrogen), supplemented with 10% (v/v) foetal calf serum (FCS) (Invitrogen), 1% (v/v), penicillin and streptomycin (Invitrogen) at 37 °C with 5% CO2 in a humidified atmosphere. Fresh medium was given every second day and on the day before the experiments were done. Cells were passaged at preconfluent densities, using a solution containing 0.05% trypsin.
The anti-cancer activity in vitro was measured using the MTT assay. Exponentially growing cells were harvested and plated in 96-well plates at a concentration of 1 × 10^4 cells/well. After 24 h incubation at 37 °C under a humidified 5% CO2 to allow cell attachment, the cells in the wells were respectively treated with target compounds at various concentrations for 48 h. […] A solution of 3–(4,5-dimethylthizao1-2-y1)-2,5-diphenyltetrazolium bromide (MTT), was prepared at 5 mg/ml in phosphate buffered saline (PBS: 1.5 mM KH2PO4, 6.5 mM Na2HPO4, 137 mM NaCl, 2.7 mM KCl; pH 7.4). Of this solution 20 µl was added to each well. After incubation for 4 h at 37 °C in a humidified incubator with 5% CO2, the medium/MTT mixtures were removed, and the formazan crystals formed by the mitochondrial dehydrogenase activity of vital cells were dissolved in 100 µl of DMSO per well. The absorbance of the wells was read with a microplate reader at 570 nm. Effects of the drug cell viability were calculated using cell treated with DMSO as control.
The anti-proliferative activities were firstly evaluated against 22RV1 stimulated by 0.1 µM T or not. […] Although androst[3,2-c]pyrazoleis common in anabolic steroid, luckily these derivatives shown no androgen agonistic activity. The phenethylamino substituted compounds (7d, 8d, and 9d) and piperidine substituted compounds (7b, 8b, and 9b) were more efficient than others. […] As presented in Figure 3, 0.1 µm of T was selectedas the most adequate to induce proliferation of 22RV1 cells. […] Compound 9d caused a much more significant decrease in cell viability for all concentrations than flutamide. […]

[3] = 1 μM compound, pH 6.6, rat liver enzyme preparation, read-out: Type 1 (pH 6.6) Inh% (1 μM)
[4] = 1 μM compound, pH 5.5, rat liver enzyme preparation, read-out: Type 2 (pH 5.5) Inh% (1μM)
[5] = pH 6.6, read-out: Type 1 (pH 6.6) Inh% (1 μM)
[6] = pH 5.5, read-out: Type 2 (pH 5.5) Inh% (1μM)
[7] = pH 6.6, rat liver enzyme preparation, read-out: Type 1 (pH 6.6) IC50

Row | SMILES | inhibition at 1 µM [1, 3] | inhibition at 1 µM [2, 4] | melting point | other results
1 | CC(C)CNC(=O)[C@H]1CCC2C3CCC4=CC(=O)/C(=C\O)C[C@]4(C)C3CC[C@@]21C (stereo partly drawn) [Compound 7a, 2-hydroxymethylene-17β-(N-isobutyl-carboxamide)-androst-4-ene-3-one] | 25 ± 9.68% | 24.2 ± 1.13% | 152 to 158 °C | –
2 | C[C@]12CC[C@H]3[C@@H](CCC4=CC(=O)C(=CO)C[C@@]43C)[C@@H]1CC[C@@H]2C(=O)N1CCCCC1 [Compound 7b, 2-hydroxymethylene-17β-(piperidine-1-carbonyl)-androst-4-ene-3-one] | 52.2 ± 12.3% | 49.9 ± 3.08% | 105 to 110 °C | –
3 | CCN(CC)C(=O)[C@H]1CCC2C3CCC4=CC(=O)/C(=C\O)C[C@]4(C)C3CC[C@@]21C (stereo partly drawn) [Compound 7c, 2-hydroxymethylene-17β-(N,N-diethy-carboxamide)-androst-4-ene-3-one] | 27.9 ± 4.01% | 24.5 ± 8.47% | 153 to 159 °C | –
4 | COc1ccc(CCNC(=O)[C@H]2CCC3C4CCC5=CC(=O)/C(=C\O)C[C@]5(C)C4CC[C@@]32C)cc1OC (stereo partly drawn) [Compound 7d, 2-hydroxymethylene-17β-(N-(3,4-dimethoxyphenethyl)-carboxamide)-androst-4-ene-3-one] | – | – | 121 to 129 °C | IC50 [1]: 0.58 ± 0.06 µM; inhibition at 1 µM [1, 5]: 66.4 ± 4.37%; inhibition at 1 µM [2, 6]: 69 ± 9.3%
5 | C[C@]12CC[C@H]3[C@@H](CCC4=CC(=O)C(=CO)C[C@@]43C)[C@@H]1CC[C@@H]2C(=O)NC1CC1 [Compound 7e, 2-hydroxymethylene-17β-(N-cyclopropylamino-carbonyl)-androst-4-ene-3-one] | 54.7 ± 5.94% | 45.8 ± 9.86% | 125 to 130 °C | –
6 | C=C1C[C@@]2(C)C(=CC1=O)CCC1C2CC[C@@]2(C)C1CC[C@@H]2C(=O)NCC(C)C (stereo partly drawn) [Compound 8a, 2-methylene-17β-(N-isobutyl-carboxamide)-androst-4-ene-3-one] | 31.1 ± 6.49% | 19.9 ± 12.9% | 168 to 175 °C | –
7 | C=C1C[C@@]2(C)C(=CC1=O)CC[C@H]1[C@@H]3CC[C@H](C(=O)N4CCCCC4)[C@@]3(C)CC[C@@H]12 [Compound 8b, 2-methylene-17β-(piperidine-1-carbonyl)-androst-4-ene-3-one] | 35.8 ± 9.58% | 21.2 ± 1.31% | – | –
8 | C=C1C[C@@]2(C)C(=CC1=O)CCC1C2CC[C@@]2(C)C1CC[C@@H]2C(=O)N(CC)CC (stereo partly drawn) [Compound 8c, 2-methylene-17β-(N,N-diethy-carboxamide)-androst-4-ene-3-one] | 25.8 ± 4.22% | 18.3 ± 4.61% | 98 to 105 °C | –
9 | C=C1C[C@@]2(C)C(=CC1=O)CCC1C2CC[C@@]2(C)C1CC[C@@H]2C(=O)NCCc1ccc(OC)c(OC)c1 (stereo partly drawn) [Compound 8d, 2-methylene-17β-(N-(3,4-dimethoxyphenethyl)-carboxamide)-androst-4-ene-3-one] | 24.8 ± 9.02% | 26.1 ± 10.3% | 74 to 78 °C | –
10 | C=C1C[C@@]2(C)C(=CC1=O)CC[C@H]1[C@@H]3CC[C@H](C(=O)NC4CC4)[C@@]3(C)CC[C@@H]12 [Compound 8e, 2-methylene-17β-(N-cyclopropylamino-carbonyl)-androst-4-ene-3-one] | 34.1 ± 10.1% | 20.9 ± 10.1% | 135 to 142 °C | –
11 | CC(C)CNC(=O)[C@H]1CCC2C3CCC4=Cc5n[nH]cc5C[C@]4(C)C3CC[C@@]21C (stereo partly drawn) [Compound 9a, 17β-(N-isobutyl-carboxamide)-androst[3,2-c]pyrazole-4-ene] | 53.1 ± 9.71% | 48.7 ± 3.08% | – | –
12 | C[C@]12Cc3c[nH]nc3C=C1CCC1C2CC[C@@]2(C)C1CC[C@@H]2C(=O)N1CCCCC1 (stereo partly drawn) [Compound 9b, 17β-(Piperidine-1-carbonyl)-androst[3,2-c]pyrazole-4-ene] | 59.2 ± 2.28% | 49.6 ± 5.75% | – | IC50 [1, 7]: 0.63 ± 0.14 µM
13 | CCN(CC)C(=O)[C@H]1CCC2C3CCC4=Cc5n[nH]cc5C[C@]4(C)C3CC[C@@]21C (stereo partly drawn) [Compound 9c, 17β-(N,N-diethy-carboxamide)-androst[3,2-c]pyrazole-4-ene] | 68 ± 12% | 63.6 ± 12.5% | 111 to 118 °C | IC50 [1, 7]: 0.52 ± 0.06 µM
14 | COc1ccc(CCNC(=O)[C@H]2CCC3C4CCC5=Cc6n[nH]cc6C[C@]5(C)C4CC[C@@]32C)cc1OC (stereo partly drawn) [Compound 9d, 17β-(N-(3,4-dimethoxyphenethyl)-carboxamide)-androst[3,2-c]pyrazole-4-ene] | – | – | – | IC50 [1]: 0.09 ± 0.02 µM; inhibition at 1 µM [1, 5]: 80.1 ± 6.73%; IC50 (22RV1 cells; Homo sapiens, 22Rv1, 48 h, read-out: IC50 anti-proliferative activity against 22RV1, T-stimulated group): 8.85 µM; Effect on cell viability of T-treated 22RV1 cells (22RV1 cells): inhibited cell proliferation in a dose-dependent manner; inhibition at 1 µM [2, 6]: 71.9 ± 3.4%
15 | C[C@]12Cc3c[nH]nc3C=C1CCC1C2CC[C@@]2(C)C1CC[C@@H]2C(=O)NC1CC1 (stereo partly drawn) [Compound 9e, 17β-(N-cyclopropylamino-carbonyl)-androst[3,2-c]pyrazole-4-ene] | – | – | – | IC50 [1]: 0.23 ± 0.09 µM; inhibition at 1 µM [1, 5]: 70.8 ± 9.74%; inhibition at 1 µM [2, 6]: 79.4 ± 2.47%
16 | CC(C)(C)NC(=O)[C@H]1CC[C@H]2[C@@H]3CC[C@H]4NC(=O)C=C[C@]4(C)[C@H]3CC[C@]12C [Finasteride, finasteride, reference compound] | 73.7 ± 4.22% | – | – | inhibition at 1 µM [2, 6]: 70 ± 4.12%
17 | CC(C)C(=O)Nc1ccc([N+](=O)[O-])c(C(F)(F)F)c1 [flutamide, reference compound] | – | – | – | Effect on cell viability of T-treated 22RV1 cells (22RV1 cells): inhibited cell proliferation in a dose-dependent manner
